# Laboratory results: patent EP3884941A1, “INFLAMMASOME INHIBITORS AND USE THEREOF” (CENTRO DE INVESTIGACION PRINCIPE FELIPE, priority 2020, dated 2021)
# Entries after “also recorded” stand apart in the source; their conditions may differ.
# Experiments:
# NLRP3 inflammasome [1] = experiment: inflammasome activation cellular assay, LPS plus ATP, THP-1 cells; format: cell-based, human
# Procedure: The MM01 compound was evaluated in the THP-1, or PMA-differentiated THP-1 cells (50 nM PMA for 24h) stimulated with lipopolysaccharide (LPS) plus adenosine triphosphate (ATP) to stimulate ASC-dependent inflammasomes NLRP3. Briefly, 1x10^6 cells were seeded in 6-well plates in 1 mL RPMI media that contained 1% FBS. Cells were either mock-treated or primed with compounds at the indicated concentrations for 30 min, followed by treatment with 100 ng/mL LPS (Sigma) and 2.5 mM ATP (Sigma) for 6 h at 37°C. In the case of nigericin stimulation, cells were primed with LPS for 3h, and then 10 µM nigericin (Sigma) was added for 30 min. Supernatants were harvested and clarified by centrifugation at 1500 rpm at RT, and a cytokine analysis was performed. Both IL-1β secretion and the release of IL-18were monitored by an ELISA assay (BD OptEIA™ Human IL-1β ELISA Kit and Human IL-18 Module Set eBioscience) following the manufacturer's instructions. Cell viability was analyzed in parallel by evaluating the release of lactate dehydrogenase (LDH) according to a commercial kit (CytoTox-ONE™ Homogeneous Membrane Integrity Assay; Promega). The release of LDH was calculated using the formula: the release of LDH (%) = 100x (Abs490 treated -Abs490 untreated cells)/ Abs490 untreated cells lysed with Triton 9% (maximum release of LDH).
# The supernatants of the treated cells were precipitated by the chloroform-methanol method. Pellets were obtained by lysing cells in 25 mM of Tris-HCI pH 7.4, 1 mM EDTA, 1 mM EGTA and 1% SDS, plus protease and phosphatase inhibitors. The protein concentration was determined by the BCA protein assay. Samples were separated in a 14% SDS-PAGE gel, transferred to a nitrocellulose membrane and blocked with 5% skimmed milk for 1 h. Then the membrane was incubated overnight with primary antibodies: α-casp1 (1:1000; Cell Signaling 2225), α-IL-1β (1:1000; Acris R1130P), α-NLRP3 (1:1000; Cell Signaling 15101), α-tubulin (1:3000; Abcam ab6160) at 4°C. Membranes were washed and probed with the appropriate secondary antibody conjugated with peroxidase for enhanced chemiluminescence detection (Amersham Pharmacia Biotech).
# NLRC4 inflammasome = NLRC4 inflammasome activation, Salmonella Typhimurium, THP-1 cells; format: cell-based, human; details: MM01 10 µM
# Procedure: (§1) The materials and methods employed in these experiments are now described. The molecules were evaluated in the THP-1, or PMA-differentiated THP-1 cells (50 nM PMA for 24h) as described in Example 3. To stimulate NLRP1 inflammasome, cells were either mock-treated or primed with compounds at the indicated concentrations for 30 min, followed by treatment with 100 ng/mL LPS (Sigma) and 50 µg/ml MDP (Sigma) for 6 h at 37°C. In the case of NLRC4 inflammasome induction, cells were pretreated with the compounds for 30 min and then cells were stimulated for 3 h with Salmonella Typhimurium (MOI 5). To induce AIM2 inflammasome, cells were pretreated in the same conditions as before and transfected with poly(dA:dT) (200 µg/ml; Sigma) overnight using Lipofectamine 2000 (Invitrogen). Both IL-1β secretion and the release of IL-18 were monitored as previously described in Example 3.
# NLRP3 inflammasome [2] = experiment: human PBMCs cellular assay, LPS plus ATP; format: cell-based; details: IL-1β and LDH release; MM01 1, 5 or 10 µM (Figure 5E, 5F)
# Procedure: Human peripheral blood mononuclear cells (PBMCs) are lymphocytes and monocytes. PBMCs were separated from the whole blood by a density gradient centrifugation method using Ficoll Histopaque. Purified PBMCs were plated in 24-well plates at 5000000 cells/well in free-serum RPMI medium. Cells were primed for 3 h with 10 ng/ml pure LPS followed by 4 h with compounds and 5 mM ATP. Supernatants were harvested and clarified by centrifugation at 1500 rpm at RT and cytokine and caspase-1 activation analysis was performed as previously described.
# caspase-3 = biological target: T1, caspase-3 (Homo sapiens, UniProt P42574); experiment: Caspase-3 activation assay; format: biochemical; details: recombinant caspase-3; MM01 5 µM (Figure 2A)
# T1 sequence (P42574 29-277): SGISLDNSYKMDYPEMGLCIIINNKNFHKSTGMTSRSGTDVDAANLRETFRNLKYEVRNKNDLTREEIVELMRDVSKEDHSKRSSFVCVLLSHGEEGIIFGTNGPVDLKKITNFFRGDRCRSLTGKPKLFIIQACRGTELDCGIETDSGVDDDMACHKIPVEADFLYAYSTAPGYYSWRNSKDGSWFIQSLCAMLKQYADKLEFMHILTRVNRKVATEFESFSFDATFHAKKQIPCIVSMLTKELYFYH
# Procedure: Compounds were incubated with caspase-3 (2 nM) in reaction buffer (100 mM NaCl, 50 mM Hepes pH 7.4, 10 mM DTT, 1 mM EDTA, 10% glycerol, 0.1% CHAPS) for 20 min at RT. Enzyme activity was spectrophotometrically monitored by adding Ac-DEVD-pNA (200 µM) substrate.
# human NLRP1 inflammasome = experiment: NLRP1 inflammasome activation, LPS plus MDP, THP-1 cells; format: cell-based
# Procedure: as §1
# AIM2 inflammasome = AIM2 inflammasome activation, poly(dA:dT), PMA-differentiated THP-1 cells; format: cell-based, human; details: PMA-differentiated THP-1, poly(dA:dT) 200 µg/ml; MM01 10 µM
# Procedure: as §1
# [3] = THP-1, LPS 100 ng/ml + ATP 2.5 mM, MM01 1, 2.5 or 5 µM, ELISA
smiles,measurement,setting,value
C=CCN1C(=O)/C(=C2/C(=O)Nc3ccccc32)SC1=S [MM01],IL-1β secretion,NLRP3 inflammasome [1]; [3],decrease
same,IL-18 secretion,NLRP3 inflammasome [1]; [3],decrease
same,caspase-1 and IL-1β processing,"NLRP3 inflammasome [1]; THP-1, LPS + ATP, immunoblotting (Figure 3C)",decrease
same,LDH release,"NLRP3 inflammasome [1]; THP-1, LPS + ATP, pyroptosis / cell viability, MM01 1, 2.5 or 5 µM, VX-765 5 µM",significantly reduce; also recorded: significantively decreased
same,cytokine maturation and release,"NLRC4 inflammasome; THP-1, Salmonella infection (MOI 5)",impaired
same,pyroptosis,"NLRC4 inflammasome; THP-1, Salmonella infection, LDH",decrease
same,LPS/ATP stimulation of isolated human PBMCs,NLRP3 inflammasome [2],inhibits
same,caspase-3 activity,caspase-3,do not act on
same,IL-18 release,"human NLRP1 inflammasome; THP-1, LPS 100 ng/ml + MDP 50 µg/ml",avoided
same,IL-1β release,"human NLRP1 inflammasome; THP-1, LPS 100 ng/ml + MDP 50 µg/ml, MM01 1, 2.5 or 5 µM",avoided
same,procaspase-1 activation,"human NLRP1 inflammasome; THP-1, LPS 100 ng/ml + MDP 50 µg/ml, pretreatment",avoided
same,pyroptotic cell death,"human NLRP1 inflammasome; THP-1, LPS + MDP, LDH release",protected
same,IL-1β secretion,AIM2 inflammasome,significantly decreased
